# From article PMC9504244, “Lysophosphatidylinositol Induced Morphological Changes and Stress Fiber Formation through the GPR55-RhoA-ROCK Pathway” (International Journal of Molecular Sciences, 2022)
# Biological target: GPR55 (Homo sapiens, UniProt Q9Y2T6)
# Assay: cell rounding, dose response, GPR55-expressing vs empty-vector HEK293 cells
# Type: cell-based
# GPR55, sequence (Q9Y2T6 whole entry): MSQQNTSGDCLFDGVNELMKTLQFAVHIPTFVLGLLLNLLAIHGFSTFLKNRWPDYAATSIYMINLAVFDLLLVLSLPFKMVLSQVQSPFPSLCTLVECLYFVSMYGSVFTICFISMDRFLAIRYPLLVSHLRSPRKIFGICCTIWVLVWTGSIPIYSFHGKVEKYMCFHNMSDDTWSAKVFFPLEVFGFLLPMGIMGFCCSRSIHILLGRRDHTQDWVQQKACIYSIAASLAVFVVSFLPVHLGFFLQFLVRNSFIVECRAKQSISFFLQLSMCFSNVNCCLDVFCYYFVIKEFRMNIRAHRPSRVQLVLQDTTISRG
compound,measurement,value
Cc1c(C(=O)NN2CCCCC2)nn(-c2ccc(Cl)cc2Cl)c1-c1ccc(Cl)cc1 [SR141716A],"cell rounding, dose response, GPR55-expressing vs empty-vector HEK293 cells",cell rounding induced by AM251 and SR141716A was not observed in empty vector-transfected cells
